Laboratory results as given in PubChem BioAssay AID256 (DTP/NCI, 2004).
“And” between values parts separate entries of the source, which are not always exact repeats. Equal entries are not always repeated. Inconclusive results and toxic doses are left out. Rule for the calls: active = survival T/C of 150% or more; inactive = T/C below 125% in these data.

Test system: CD2F1 mice, L1210 leukemia ip, survival T/C
Test: NCI In Vivo Anticancer Drug Screen. Data for tumor model L1210 Leukemia (intraperitoneal) in CD2F1 (CDF1) mice
Conditions: higher = longer survival
How it was run: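 Ratio T/C, where T is the treated-group value and C the vehicle-dosed control value, from mice implanted with a transplantable tumor.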

[1] = endpoint: mean survival time, dose: 25.0 mg/kg/injection, schedule: Q04DX003 (ip), vehicle: saline with Tween-80
[2] = endpoint: mean survival time, dose: 50.0 mg/kg/injection, schedule: Q01DX009 (ip), vehicle: saline with Tween-80
[3] = endpoint: mean survival time, dose: 100.0 mg/kg/injection, schedule: Q01DX001 (ip), vehicle: saline with Tween-80
[4] = endpoint: mean survival time, dose: 100.0 mg/kg/injection, schedule: Q01DX009 (ip), vehicle: saline with Tween-80
[5] = endpoint: mean survival time, dose: 200.0 mg/kg/injection, schedule: Q01DX001 (ip), vehicle: saline with Tween-80
[6] = endpoint: mean survival time, dose: 200.0 mg/kg/injection, schedule: Q01DX009 (ip), vehicle: saline with Tween-80
[7] = endpoint: mean survival time, dose: 400.0 mg/kg/injection, schedule: Q01DX009 (ip), vehicle: saline with Tween-80
[8] = endpoint: mean survival time, dose: 100.0 mg/kg/injection, schedule: Q04DX003 (ip), vehicle: saline with Tween-80
[9] = endpoint: mean survival time, dose: 200.0 mg/kg/injection, schedule: Q04DX003 (ip), vehicle: saline with Tween-80
[10] = endpoint: mean survival time, dose: 100.0 mg/kg/injection, schedule: Q01DX001 (ip), vehicle: saline
[11] = endpoint: mean survival time, dose: 200.0 mg/kg/injection, schedule: Q01DX001 (ip), vehicle: saline
[12] = endpoint: mean survival time, dose: 100.0 mg/kg/injection, schedule: Q04DX003 (ip), vehicle: saline
[13] = endpoint: mean survival time, dose: 200.0 mg/kg/injection, schedule: Q04DX003 (ip), vehicle: saline
[14] = endpoint: mean survival time, dose: 400.0 mg/kg/injection, schedule: Q04DX003 (ip), vehicle: saline

Measured: T/C

O=P1(Cc2ccccc2)C(c2ccccc2)=C(O)C2CCCC21 (configuration not stated)
inactive: endpoint: mean survival time, dose: 50.0 mg/kg/injection, schedule: Q01DX009 (ip), vehicle: Klucel (hydroxypropylcellulose) (HPC) 97 % of control | endpoint: mean survival time, dose: 100.0 mg/kg/injection, schedule: Q01DX009 (ip), vehicle: Klucel (hydroxypropylcellulose) (HPC) 97 % of control | endpoint: mean survival time, dose: 200.0 mg/kg/injection, schedule: Q01DX009 (ip), vehicle: Klucel (hydroxypropylcellulose) (HPC) 89 % of control

C[CH2][Sn]([Cl])([CH2]C)[c]1cc[c]([Sn]([Cl])([CH2]C)[CH2]C)cc1
inactive: endpoint: median survival time, dose: 0.06 mg/kg/injection, schedule: Q01DX005 (ip), vehicle: Klucel (hydroxypropylcellulose) (HPC) 103 % of control | endpoint: median survival time, dose: 0.12 mg/kg/injection, schedule: Q01DX005 (ip), vehicle: Klucel (hydroxypropylcellulose) (HPC) 112 % of control | endpoint: median survival time, dose: 3.8 micrograms/kg/injection, schedule: Q01DX005 (ip), vehicle: Klucel (hydroxypropylcellulose) (HPC) 103 % of control | endpoint: median survival time, dose: 7.5 micrograms/kg/injection, schedule: Q01DX005 (ip), vehicle: Klucel (hydroxypropylcellulose) (HPC) 100 % of control | endpoint: median survival time, dose: 15.0 micrograms/kg/injection, schedule: Q01DX005 (ip), vehicle: Klucel (hydroxypropylcellulose) (HPC) 102 % of control | endpoint: median survival time, dose: 30.0 micrograms/kg/injection, schedule: Q01DX005 (ip), vehicle: Klucel (hydroxypropylcellulose) (HPC) 98 % of control | endpoint: median survival time, dose: 60.0 micrograms/kg/injection, schedule: Q01DX005 (ip), vehicle: Klucel (hydroxypropylcellulose) (HPC) 103 % of control | endpoint: median survival time, dose: 120.0 micrograms/kg/injection, schedule: Q01DX005 (ip), vehicle: Klucel (hydroxypropylcellulose) (HPC) 109 % of control

CCC(O)C[As](=O)(O)c1ccccc1Cl (configuration not stated)
inactive: endpoint: mean survival time, dose: 6.25 mg/kg/injection, schedule: Q04DX003 (ip), vehicle: saline with Tween-80 107 % of control | endpoint: mean survival time, dose: 12.5 mg/kg/injection, schedule: Q04DX003 (ip), vehicle: saline with Tween-80 98 % of control | [1] 104 % of control

O=C1OC(=O)C2C3C=CC(C4C=CC43)C12 (configuration not stated)
inactive: [2] 102 % of control | [3] 101 % of control | [4] 102 % of control | [5] 98 % of control | [6] 97 % of control

COc1c(O)ccc(/C=C2/SC(=S)NC2=O)c1[N+](=O)[O-]
inactive: [3] 101 % of control

O=C1CC(CO)CN1CCc1ccccc1 (configuration not stated)
inactive: [4] 96 % of control | [6] 92 % of control | [7] 95 % of control

O=[N+]([O-])c1ccc(NCc2ccccc2)c([N+](=O)[O-])c1
inactive: endpoint: mean survival time, dose: 100.0 mg/kg/injection, schedule: Q04DX003 (ip), vehicle: gum acacia 98 % of control | endpoint: mean survival time, dose: 200.0 mg/kg/injection, schedule: Q04DX003 (ip), vehicle: gum acacia 106 % of control | endpoint: mean survival time, dose: 400.0 mg/kg/injection, schedule: Q04DX003 (ip), vehicle: gum acacia 102 % of control

O=C(NCCO)NCCO
inactive: endpoint: mean survival time, dose: 100.0 mg/kg/injection, schedule: Q01DX009 (ip), vehicle: saline sonified 110 % of control | endpoint: mean survival time, dose: 200.0 mg/kg/injection, schedule: Q01DX009 (ip), vehicle: saline sonified 104 % of control | endpoint: mean survival time, dose: 400.0 mg/kg/injection, schedule: Q01DX009 (ip), vehicle: saline sonified 110 % of control

CSc1nc(N)cc(=O)[nH]1
inactive: endpoint: mean survival time, dose: 50.0 mg/kg/injection, schedule: Q01DX001 (ip), vehicle: Klucel (hydroxypropylcellulose) (HPC) 98 % of control | endpoint: mean survival time, dose: 100.0 mg/kg/injection, schedule: Q01DX001 (ip), vehicle: Klucel (hydroxypropylcellulose) (HPC) 96 % of control | endpoint: mean survival time, dose: 200.0 mg/kg/injection, schedule: Q01DX001 (ip), vehicle: Klucel (hydroxypropylcellulose) (HPC) 86 % of control

CCC(Cl)[N+](=O)[O-] (configuration not stated)
inactive: endpoint: mean survival time, dose: 50.0 mg/kg/injection, schedule: Q04DX003 (ip), vehicle: Klucel (hydroxypropylcellulose) (HPC) 97 % of control | endpoint: mean survival time, dose: 100.0 mg/kg/injection, schedule: Q04DX003 (ip), vehicle: Klucel (hydroxypropylcellulose) (HPC) 107 % of control | endpoint: mean survival time, dose: 200.0 mg/kg/injection, schedule: Q04DX003 (ip), vehicle: Klucel (hydroxypropylcellulose) (HPC) 101 % of control

C[n+]1cccc(/C=C/C(=O)Nc2ccccc2)c1
inactive: [8] 99 % of control | [9] 87 % of control

COc1ccccc1C1(O)c2ccccc2Sc2cccc(OC)c21 (configuration not stated)
inactive: [4] 86 % of control | [6] 89 % of control | [7] 94 % of control

c1ccc2c(-c3nn[nH]n3)nccc2c1
inactive: [10] 106 % of control | [11] 113 % of control

Nc1nc2c(ncn2-c2cccc(NC(=O)c3cc(S(=O)(=O)F)ccc3Cl)c2)c(=O)[nH]1
inactive: [3] 88 % of control | [5] 94 % of control | endpoint: mean survival time, dose: 400.0 mg/kg/injection, schedule: Q01DX001 (ip), vehicle: saline with Tween-80 94 % of control

O=C1C=CC(=O)C1=Cc1ccc(O)cc1
inactive: endpoint: mean survival time, dose: 5.0 mg/kg/injection, schedule: Q04DX002 (ip), vehicle: saline with Tween-80 100 % of control | endpoint: mean survival time, dose: 10.0 mg/kg/injection, schedule: Q04DX002 (ip), vehicle: saline with Tween-80 103 % of control

Cc1ccc(C(=Nc2ccccc2)N=P(c2ccccc2)(c2ccccc2)c2ccccc2)cc1
inactive: endpoint: median survival time, dose: 12.5 mg/kg/injection, schedule: Q01DX005 (ip), vehicle: saline with Tween-80 102 % of control | endpoint: median survival time, dose: 25.0 mg/kg/injection, schedule: Q01DX005 (ip), vehicle: saline with Tween-80 105 % of control | endpoint: median survival time, dose: 50.0 mg/kg/injection, schedule: Q01DX005 (ip), vehicle: saline with Tween-80 105 % of control | endpoint: median survival time, dose: 100.0 mg/kg/injection, schedule: Q01DX005 (ip), vehicle: saline with Tween-80 91 % of control

CCCCNC(=O)C1C2CCC(C2)C1C(=O)NCCCC (configuration not stated)
inactive: [8] 98 % of control | [9] 98 % of control | endpoint: mean survival time, dose: 400.0 mg/kg/injection, schedule: Q04DX003 (ip), vehicle: saline with Tween-80 90 % of control

CS(=O)(=O)OCCCOS(C)(=O)=O
inactive: endpoint: mean survival time, dose: 12.5 mg/kg/injection, schedule: Q01DX009 (ip), vehicle: saline with Tween-80 107 % of control | endpoint: mean survival time, dose: 25.0 mg/kg/injection, schedule: Q01DX009 (ip), vehicle: saline with Tween-80 116 % of control | endpoint: mean survival time, dose: 50.0 mg/kg/injection, schedule: Q01DX001 (ip), vehicle: saline 96 % of control | [2] 116 % of control | [10] 100 % of control | [4] 105 % of control | [12] 105 % of control | [11] 102 % of control | [13] 106 % of control | endpoint: mean survival time, dose: 400.0 mg/kg/injection, schedule: Q01DX001 (ip), vehicle: saline 100 % of control | [14] 110 % of control

COc1ccc(C=Nc2ccccc2)cc1
inactive: [4] 95 % of control | [6] 89 % of control | [7] 89 % of control

CCCCCCC(C)OC(=O)CCCc1ccc(N(CCCl)CCCl)cc1 (configuration not stated)
inactive: endpoint: mean survival time, dose: 50.0 mg/kg/injection, schedule: Q01DX009 (ip), vehicle: acetone 104 % of control | endpoint: mean survival time, dose: 100.0 mg/kg/injection, schedule: Q01DX009 (ip), vehicle: acetone 104 % of control | endpoint: mean survival time, dose: 200.0 mg/kg/injection, schedule: Q01DX009 (ip), vehicle: acetone 104 % of control

Cc1ccc(S(=O)(=O)NOCCCCONS(=O)(=O)c2ccc(C)cc2)cc1
inactive: [1] 91 % of control | endpoint: mean survival time, dose: 50.0 mg/kg/injection, schedule: Q04DX003 (ip), vehicle: saline with Tween-80 89 % of control | [8] 89 % of control and 97 % of control

COc1ccc(/C=N\N=C\c2ccc(OC)c(OC)c2)cc1OC
inactive: [12] 105 % of control | [13] 100 % of control | [14] 94 % of control
